Source: ChEMBL document CHEMBL1201862, “PubChem BioAssay data set” (2004)
Active and inactive are the calls of the source.

Legend:
BJ [1] = assay: BJ-TERT fibroblast viability loss – cell-based, RAS-independent, luminescence, dose response (AID 1933); assay type: functional; conditions: Homo sapiens
Beta-galactosidase = Beta-galactosidase (Escherichia coli, UniProt Q8VNN2); assay: PubChem AID 485352; assay type: functional
[2] = target: T1, Heat shock factor protein 1 (Mus musculus, UniProt P38532); assay: decrease of HSF1-responsive luciferase luminescence – cell-based, NIH3T3, dose retest, confirmation (AID 2382); assay type: functional;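 further: NIH3T3 fibroblasts with HSF1-driven luciferase reporter stressed by proteasome inhibitor MG132; luminescence from HSF1-driven luciferase expression after 8 hours of MG132 stress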
T1 sequence (P38532 whole entry): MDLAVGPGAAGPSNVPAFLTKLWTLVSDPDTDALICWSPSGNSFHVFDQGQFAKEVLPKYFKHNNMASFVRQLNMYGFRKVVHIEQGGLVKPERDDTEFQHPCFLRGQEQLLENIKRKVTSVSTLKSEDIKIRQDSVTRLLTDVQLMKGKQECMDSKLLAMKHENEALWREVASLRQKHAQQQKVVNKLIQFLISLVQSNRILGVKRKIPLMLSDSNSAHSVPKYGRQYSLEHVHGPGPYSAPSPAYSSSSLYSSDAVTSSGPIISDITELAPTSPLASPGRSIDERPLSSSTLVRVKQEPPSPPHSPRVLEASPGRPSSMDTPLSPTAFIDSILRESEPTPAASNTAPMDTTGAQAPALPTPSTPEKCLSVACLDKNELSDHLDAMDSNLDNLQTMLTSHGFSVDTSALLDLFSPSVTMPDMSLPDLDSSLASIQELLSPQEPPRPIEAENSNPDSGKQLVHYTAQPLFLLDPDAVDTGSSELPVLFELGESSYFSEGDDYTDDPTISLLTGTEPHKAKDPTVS

BJ [3] = assay: cells; assay type: functional, cell-based; conditions: Homo sapiens
[4] = target: T2, Type-1 angiotensin II receptor (Homo sapiens, UniProt P30556); assay: antagonism of angiotensin II type 1 receptor – cell-based, uHTS hits, selectivity assay for APJ receptor antagonist project, dose response (AID 463214); assay type: functional;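 further: antagonist potency against angiotensin II stimulated AT1 response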
T2 sequence (P30556 whole entry): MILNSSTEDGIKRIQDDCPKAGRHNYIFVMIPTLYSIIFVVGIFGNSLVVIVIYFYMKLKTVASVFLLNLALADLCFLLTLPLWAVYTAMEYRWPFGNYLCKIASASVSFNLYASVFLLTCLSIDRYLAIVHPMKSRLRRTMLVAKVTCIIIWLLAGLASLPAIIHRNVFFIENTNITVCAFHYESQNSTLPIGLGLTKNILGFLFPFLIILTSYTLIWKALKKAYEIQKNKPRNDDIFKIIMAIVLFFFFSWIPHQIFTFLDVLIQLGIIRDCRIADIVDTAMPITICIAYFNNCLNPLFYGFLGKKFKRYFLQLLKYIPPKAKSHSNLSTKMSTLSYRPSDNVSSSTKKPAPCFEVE

[5] = target: Heat shock protein HSP 90-alpha (Homo sapiens, UniProt P07900); assay: Luminescence-based dose response biochemical high throughput screening assay for inhibitors of the Heat Shock Protein 90 (HSP90). [Related pubchem assays: 1831 (Summary AID.), 1846 (Confirmation screen.), 1789 (Primary screen.)]
BJ [6] = assay: BJ-TERT-LT-ST fibroblast viability loss – cell-based, RAS-independent, luminescence, dose response (AID 1935); assay type: functional; conditions: Homo sapiens;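 further: BJ fibroblasts immortalized with TERT plus LT and ST oncogenes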
[7] = DRD fibroblast viability loss – cell-based, non-viral oncogenic, luminescence, dose response (AID 1934); assay type: functional; conditions: Homo sapiens
BJ [8] = assay: growth inhibition of engineered Ras-driven BJ cells – cell-based, alamar blue fluorescence, cherrypicked samples, dose response (AID 2631); assay type: functional; conditions: Homo sapiens;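 further: confirmatory dose-response assay in RAS-dependent BJ fibroblasts engineered with TERT, LT and ST, with cytotoxicity read by fluorescence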
Leucine aminopeptidase = target: T3, Leucine aminopeptidase (Plasmodium falciparum 3D7, UniProt Q8IL11); assay: P. falciparum M17LAP inhibitors, primary screen, biochemical, fluorogenic H-Leu-NHMec substrate, 1536-well (AID 1619); assay type: functional
T3 sequence (Q8IL11 whole entry): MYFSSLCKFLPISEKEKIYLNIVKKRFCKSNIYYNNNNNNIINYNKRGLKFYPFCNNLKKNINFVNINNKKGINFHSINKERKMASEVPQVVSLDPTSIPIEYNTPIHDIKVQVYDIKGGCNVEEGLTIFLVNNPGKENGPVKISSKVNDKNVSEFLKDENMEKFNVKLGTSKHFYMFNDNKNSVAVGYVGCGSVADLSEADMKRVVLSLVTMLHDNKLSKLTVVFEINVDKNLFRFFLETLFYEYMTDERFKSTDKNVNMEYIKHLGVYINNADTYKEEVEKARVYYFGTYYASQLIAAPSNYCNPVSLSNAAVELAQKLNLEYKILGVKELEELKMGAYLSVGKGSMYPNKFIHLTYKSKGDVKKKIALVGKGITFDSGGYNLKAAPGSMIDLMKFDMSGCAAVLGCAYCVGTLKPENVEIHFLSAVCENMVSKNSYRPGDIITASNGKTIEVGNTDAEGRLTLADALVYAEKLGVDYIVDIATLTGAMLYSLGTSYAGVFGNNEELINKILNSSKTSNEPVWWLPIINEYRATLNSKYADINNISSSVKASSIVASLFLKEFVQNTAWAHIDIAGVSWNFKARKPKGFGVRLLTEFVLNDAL

Escherichia coli = assay: microbe, parasite or virus in culture
[9] = target: T4, Mannose-6-phosphate isomerase (Homo sapiens, UniProt P34949); assay: MPI enzyme activity inhibition – biochemical, fluorescence intensity, coupled assay, primary screen (AID 1209)
T4 sequence (P34949 whole entry): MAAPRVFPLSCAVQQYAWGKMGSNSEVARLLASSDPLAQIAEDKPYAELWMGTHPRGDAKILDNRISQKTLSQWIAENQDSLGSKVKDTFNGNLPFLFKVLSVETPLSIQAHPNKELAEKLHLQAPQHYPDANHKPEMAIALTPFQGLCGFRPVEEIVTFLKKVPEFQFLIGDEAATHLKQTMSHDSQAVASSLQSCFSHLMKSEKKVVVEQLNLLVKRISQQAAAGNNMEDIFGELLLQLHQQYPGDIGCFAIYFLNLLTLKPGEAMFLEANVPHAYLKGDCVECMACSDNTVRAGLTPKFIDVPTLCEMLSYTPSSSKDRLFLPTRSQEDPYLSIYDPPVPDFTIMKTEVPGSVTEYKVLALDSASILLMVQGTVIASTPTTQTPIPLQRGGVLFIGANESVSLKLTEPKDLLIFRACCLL

[10] = target: T4, Mannose-6-phosphate isomerase; assay: phosphomannose isomerase inhibition – biochemical, fluorescence intensity, confirmation (AID 1535)
Phosphomannomutase 2 = target: T5, Phosphomannomutase 2 (Homo sapiens, UniProt O15305); assay: Counter screen SAR assay for PMM2 inhibitors via a fluorescence intensity assay. [Related pubchem assays (depositor defined):AID1545, AID1574]
T5 sequence (O15305 whole entry): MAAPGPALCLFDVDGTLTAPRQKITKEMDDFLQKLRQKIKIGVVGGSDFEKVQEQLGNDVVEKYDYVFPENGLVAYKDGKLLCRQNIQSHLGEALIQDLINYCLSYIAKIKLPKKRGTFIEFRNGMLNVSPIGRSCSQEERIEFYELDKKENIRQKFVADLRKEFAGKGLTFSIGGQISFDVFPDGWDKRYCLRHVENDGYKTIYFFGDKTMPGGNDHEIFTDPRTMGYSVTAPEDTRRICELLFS

[11] = target: T6, High affinity choline transporter 1 (Homo sapiens, UniProt Q9GZV3); assay: human choline transporter blockers, potency – cell-based, 5-point CRC, membrane potential dye, dose response (AID 504840); assay type: functional
T6 sequence (Q9GZV3 whole entry): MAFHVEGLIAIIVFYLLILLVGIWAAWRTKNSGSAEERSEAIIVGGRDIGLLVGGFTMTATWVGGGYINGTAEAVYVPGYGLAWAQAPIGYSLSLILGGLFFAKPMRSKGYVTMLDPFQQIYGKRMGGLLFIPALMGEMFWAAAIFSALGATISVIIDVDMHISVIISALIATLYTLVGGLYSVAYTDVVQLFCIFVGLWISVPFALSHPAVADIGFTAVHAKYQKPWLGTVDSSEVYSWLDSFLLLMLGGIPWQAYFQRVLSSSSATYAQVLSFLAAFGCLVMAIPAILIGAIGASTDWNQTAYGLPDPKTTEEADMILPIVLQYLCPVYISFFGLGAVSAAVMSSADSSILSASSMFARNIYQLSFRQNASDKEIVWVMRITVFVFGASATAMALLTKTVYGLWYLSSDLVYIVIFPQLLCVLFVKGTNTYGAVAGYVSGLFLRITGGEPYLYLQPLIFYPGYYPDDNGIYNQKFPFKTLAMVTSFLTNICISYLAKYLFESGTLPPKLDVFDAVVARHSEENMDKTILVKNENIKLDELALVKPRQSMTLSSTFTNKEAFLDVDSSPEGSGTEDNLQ

[12] = target: FAD-linked sulfhydryl oxidase ALR (Homo sapiens, UniProt P55789); assay: ALR-catalysed DTT oxidation blockers – biochemical, H2O2 detection, luminescence, cherry-pick, dose response (AID 493248)
HeLa = assay: ATP-based viability loss in HeLa cells – cell-based, CellTiter-Glo luminescence, cherry-pick samples, cytotoxicity control for MITF activator project, dose response (AID 540259); assay type: functional; conditions: Homo sapiens
Cytochrome P450 2D6 = Cytochrome P450 2D6 (Homo sapiens, UniProt P10635);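 further: CYP2D6 member of a cytochrome P450 panel assay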
Cytochrome P450 2C9 = Cytochrome P450 2C9 (Homo sapiens, UniProt P11712)
[13] = target: Glucose-6-phosphate 1-dehydrogenase (Homo sapiens, UniProt P11413); assay: inhibition of Homo sapiens G6PD, dose series – biochemical, fluorescence, selectivity assay for P. falciparum G6PD inhibitor project, dose response (AID 504792); assay type: functional
[14] = target: T7, Rac GTPase-activating protein 1 (Homo sapiens, UniProt Q9H0H5); assay: blockers of MgcRacGAP-driven Rac1 GTP hydrolysis – biochemical, ADP Hunter fluorescence, primary and confirmatory, confirmation (AID 624330); assay type: functional
T7 sequence (Q9H0H5 whole entry): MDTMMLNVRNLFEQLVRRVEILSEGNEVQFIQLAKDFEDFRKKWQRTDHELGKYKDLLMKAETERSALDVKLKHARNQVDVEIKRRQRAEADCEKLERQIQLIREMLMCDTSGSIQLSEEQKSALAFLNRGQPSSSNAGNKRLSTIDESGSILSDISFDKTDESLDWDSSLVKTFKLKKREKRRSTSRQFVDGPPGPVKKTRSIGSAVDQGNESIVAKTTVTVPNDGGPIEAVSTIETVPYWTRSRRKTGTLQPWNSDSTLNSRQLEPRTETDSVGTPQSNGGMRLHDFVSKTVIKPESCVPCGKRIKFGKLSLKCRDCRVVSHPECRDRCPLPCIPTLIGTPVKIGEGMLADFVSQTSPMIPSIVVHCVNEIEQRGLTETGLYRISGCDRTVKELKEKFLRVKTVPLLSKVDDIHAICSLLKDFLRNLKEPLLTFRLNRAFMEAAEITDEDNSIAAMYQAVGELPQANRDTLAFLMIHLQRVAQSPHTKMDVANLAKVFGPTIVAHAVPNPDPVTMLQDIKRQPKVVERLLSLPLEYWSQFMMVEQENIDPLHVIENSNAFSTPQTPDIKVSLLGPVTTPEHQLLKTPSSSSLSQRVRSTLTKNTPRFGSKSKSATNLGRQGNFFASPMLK

Sequence of Glucose-6-phosphate 1-dehydrogenase (P11413 whole entry): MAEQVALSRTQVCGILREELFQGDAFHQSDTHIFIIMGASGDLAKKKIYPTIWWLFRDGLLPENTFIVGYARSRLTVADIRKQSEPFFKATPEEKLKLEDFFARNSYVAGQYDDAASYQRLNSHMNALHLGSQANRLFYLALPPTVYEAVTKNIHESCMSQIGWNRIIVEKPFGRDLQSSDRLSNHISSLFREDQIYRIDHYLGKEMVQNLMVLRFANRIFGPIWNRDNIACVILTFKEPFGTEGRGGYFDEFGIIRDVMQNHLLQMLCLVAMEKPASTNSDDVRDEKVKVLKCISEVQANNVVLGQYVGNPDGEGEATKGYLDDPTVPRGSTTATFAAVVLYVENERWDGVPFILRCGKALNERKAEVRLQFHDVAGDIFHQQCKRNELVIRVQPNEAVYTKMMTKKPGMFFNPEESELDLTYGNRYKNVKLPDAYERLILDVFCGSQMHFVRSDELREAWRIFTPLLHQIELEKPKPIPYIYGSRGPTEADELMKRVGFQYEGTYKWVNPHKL
Sequence of Cytochrome P450 2C9 (P11712 whole entry): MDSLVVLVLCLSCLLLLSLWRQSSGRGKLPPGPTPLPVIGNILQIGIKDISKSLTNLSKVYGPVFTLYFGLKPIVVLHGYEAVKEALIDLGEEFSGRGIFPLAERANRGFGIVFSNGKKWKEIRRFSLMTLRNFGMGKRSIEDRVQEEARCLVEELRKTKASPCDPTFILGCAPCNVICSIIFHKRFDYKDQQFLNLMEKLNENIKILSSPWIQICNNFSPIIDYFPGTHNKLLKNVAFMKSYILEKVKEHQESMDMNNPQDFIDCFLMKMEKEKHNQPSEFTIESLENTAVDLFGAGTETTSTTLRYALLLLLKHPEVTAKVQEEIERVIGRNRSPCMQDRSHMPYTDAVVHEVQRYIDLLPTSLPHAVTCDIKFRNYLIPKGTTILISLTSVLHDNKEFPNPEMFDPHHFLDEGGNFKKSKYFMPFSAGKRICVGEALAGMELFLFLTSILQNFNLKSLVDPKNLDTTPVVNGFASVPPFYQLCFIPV
Sequence of Beta-galactosidase (Q8VNN2 whole entry): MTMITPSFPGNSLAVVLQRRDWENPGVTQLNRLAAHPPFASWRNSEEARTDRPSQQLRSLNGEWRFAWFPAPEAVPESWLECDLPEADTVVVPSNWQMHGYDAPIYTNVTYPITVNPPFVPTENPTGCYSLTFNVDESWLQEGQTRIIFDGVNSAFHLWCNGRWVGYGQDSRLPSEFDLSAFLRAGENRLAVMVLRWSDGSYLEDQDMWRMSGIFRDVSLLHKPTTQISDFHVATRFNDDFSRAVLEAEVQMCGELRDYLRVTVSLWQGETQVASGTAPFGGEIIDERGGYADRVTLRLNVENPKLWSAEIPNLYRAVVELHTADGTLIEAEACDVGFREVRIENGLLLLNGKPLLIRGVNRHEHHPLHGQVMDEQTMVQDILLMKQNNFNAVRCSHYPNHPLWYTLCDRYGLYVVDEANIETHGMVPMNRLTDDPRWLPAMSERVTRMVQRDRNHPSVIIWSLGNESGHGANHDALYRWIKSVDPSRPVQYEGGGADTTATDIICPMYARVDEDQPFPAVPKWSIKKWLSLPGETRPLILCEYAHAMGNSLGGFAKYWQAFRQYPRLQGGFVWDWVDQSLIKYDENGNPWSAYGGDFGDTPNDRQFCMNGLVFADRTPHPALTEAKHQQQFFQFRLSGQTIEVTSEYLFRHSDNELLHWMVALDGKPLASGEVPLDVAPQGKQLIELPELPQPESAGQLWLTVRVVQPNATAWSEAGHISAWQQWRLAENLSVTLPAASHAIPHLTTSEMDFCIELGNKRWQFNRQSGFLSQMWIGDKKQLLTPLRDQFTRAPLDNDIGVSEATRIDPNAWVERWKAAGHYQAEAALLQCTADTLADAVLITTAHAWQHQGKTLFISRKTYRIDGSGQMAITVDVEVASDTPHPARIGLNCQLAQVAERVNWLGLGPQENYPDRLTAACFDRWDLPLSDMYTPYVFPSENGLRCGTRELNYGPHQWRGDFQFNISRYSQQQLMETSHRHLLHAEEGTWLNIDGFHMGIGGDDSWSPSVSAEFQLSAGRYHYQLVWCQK
Sequence of Cytochrome P450 2D6 (P10635 whole entry): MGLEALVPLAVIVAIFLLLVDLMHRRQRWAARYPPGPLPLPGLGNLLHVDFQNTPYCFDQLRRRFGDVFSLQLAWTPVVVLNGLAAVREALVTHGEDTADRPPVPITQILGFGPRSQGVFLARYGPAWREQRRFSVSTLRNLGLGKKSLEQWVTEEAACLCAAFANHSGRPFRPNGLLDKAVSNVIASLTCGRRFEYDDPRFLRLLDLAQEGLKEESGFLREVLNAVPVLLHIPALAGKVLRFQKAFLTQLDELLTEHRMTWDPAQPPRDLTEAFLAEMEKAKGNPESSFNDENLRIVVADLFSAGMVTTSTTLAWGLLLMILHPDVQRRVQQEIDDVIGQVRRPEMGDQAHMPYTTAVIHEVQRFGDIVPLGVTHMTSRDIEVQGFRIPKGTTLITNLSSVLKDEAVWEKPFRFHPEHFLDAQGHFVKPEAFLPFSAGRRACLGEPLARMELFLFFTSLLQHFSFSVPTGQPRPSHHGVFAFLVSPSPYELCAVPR
Sequence of FAD-linked sulfhydryl oxidase ALR (P55789 whole entry): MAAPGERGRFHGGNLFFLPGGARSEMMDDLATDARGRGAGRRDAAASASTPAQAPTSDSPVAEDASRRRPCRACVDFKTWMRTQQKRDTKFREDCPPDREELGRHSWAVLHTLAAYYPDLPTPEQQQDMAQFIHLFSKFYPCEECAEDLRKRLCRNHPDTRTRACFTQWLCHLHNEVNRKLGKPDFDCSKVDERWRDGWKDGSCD

SMILES: O=[N+]([O-])c1ccc(N=Nc2ncc[nH]2)cc1
- EC50 (BJ [1]): 5.4 µM (inconclusive)
- EC50 (Beta-galactosidase): > 40 µM (inactive)
- EC50 [2]: 8.49 µM (active)
- EC50 (BJ [3]): 2.43 µM (inconclusive)
- IC50 [4]: 23.5 µM (not active)
- IC50 [5]: 10.2 µM (not active)
- EC50 (BJ [6]): > 150 µM (inconclusive)
- EC50 [7]: 11.5 µM (inconclusive)
- EC50 (BJ [8]): 14.8 µM (active)

SMILES: Cc1ccc(O)c(C(=O)c2coc(=N)c(C(=O)NC(C)C)c2)c1
- IC50 (Leucine aminopeptidase): 4.66 µM (active)
- AC50 (Escherichia coli): 23.8 µM (active)

SMILES: CC(C)(C)c1ccc(C(=O)CSc2nnc[nH]2)cc1
- IC50 (Leucine aminopeptidase): 46 µM (active)
- IC50 [9]: 6.08 µM (active)
- IC50 [10]: > 50 µM (inactive)
- IC50 (Phosphomannomutase 2): > 100 µM (inactive)
- IC50 [11]: 13.2 µM (active)

SMILES: CCCC(=O)Nc1ccc(NC(=O)c2ccccn2)cn1
- AC50 (Escherichia coli): 58.3 µM (active)

SMILES: O=C(NCCc1ccc(O)cc1)c1ccc(Cl)cc1
- AC50 [12]: 6.24 µM (active)
- AC50 (HeLa): 99 µM (active)
- AC50 (Cytochrome P450 2D6): 25.1 µM (inconclusive)
- AC50 (Cytochrome P450 2C9): inconclusive

SMILES: O=C1CCN(c2ccccc2)N1 [PHENIDONE]
- IC50 [13]: 42.1 µM (inactive)
- IC50 [14]: 46.5 µM (active)
